In patent publication US20040175782A1, “Biotransformation of compounds using non-prokaryotic microalgae” (TETHYS RESEARCH LLC, priority 2003, published 2004):

Tests used:
Chlorella = test: growth (cell counts) of microalgae in the presence of precursor compound; format: cell-based, Chlorella minutisima; conditions: 100 μg/ml, cell counts on days 0, 2, 4 and 7, relative to growth controls
Procedure: (§1) Three 15 ml cultures of each of the microalgae listed in Table III above were grown in 30 ml flasks. Growth control cultures contained algae and medium only. Growth control cultures in the presence of solvent contained algae, medium, and 0.06 ml of methanol, the solvent chosen for the precursor compound. Experimental cultures contained algae, medium, and 0.06 ml of a 25 mg/ml solution of (S)-(−)-3-(Benzyloxycarbonyl)-4-oxazolidinecarboxylic acid (precursor compound) dissolved in methanol, yielding a final concentration of 100 μg/ml. Cell counts were performed using a haemocytometer on days 0, 2, 4 and 7.
as §1, with “VIII” for “III”, “Precursor 2.” for “the precursor compound.”, “tert-butyl[S-(R*-R*)]-(−)-(1-oxiranyl-2-phenylethylcarbamate)” for “(S)-(−)-3-(Benzyloxycarbonyl)-4-oxazolidinecarboxylic acid”, “concentration in the culture medium” for “concentration”

Olithodiscus sp. = test: final biotransformation culture, 7 days in the presence of precursor; format: cell-based; conditions: 50 μg/ml precursor, starting cell concentration 1.09 × 10^6
Procedure: (§2) Table V below lists each microalgae in the final panel, its starting cell concentration, the concentration of precursor compound in the growth medium, the starting and final cell count, and the method of separation of the resulting biomass from the culture supernatant. The final panel of algal strains were grown for 7 days under the conditions listed in Table III above in the presence of the precursor compound prior to separation of the resulting biomass from the culture supernatant. Cell counts were not determined in every case for the strains listed in Table V. Table X below lists each microalgae in the final panel, its starting cell concentration, the concentration of precursor compound in the growth medium, the starting and final cell count, and the method of separation of the resulting biomass from the culture supernatant. The final panel of algal strains was grown for 7 days under the conditions listed in Table VIII above in the presence of Precursor 2 prior to separation of the resulting biomass from the culture supernatant.

Cryptomonas ovata = test: as above; format: cell-based; conditions: 200 μg/ml precursor, starting cell concentration not determined
Procedure: as §2

Scenedesmus obliquus = test: as above; format: cell-based; conditions: 200 μg/ml precursor, starting cell concentration 6.38 × 10^6
Procedure: as §2

[1] = tested on: Phaeodactylum tricornutum; test: as above; format: cell-based; conditions: 200 μg/ml precursor, starting cell concentration 1.18 × 10^6
Procedure: as §2

Chlorella minutisima = test: as above; format: cell-based; conditions: 100 μg/ml precursor, starting cell concentration 1.52 × 10^6
Procedure: as §2

[2] = tested on: Chlamydomonas reinhardtii; test: as above; format: cell-based; conditions: 200 μg/ml precursor, starting cell concentration 2.2 × 10^7
Procedure: as §2

Euglena gracilis = test: as above; format: cell-based; conditions: 100 μg/ml precursor, starting cell concentration not determined
Procedure: as §2

Chloromonas rosae = test: as above; format: cell-based; conditions: 100 μg/ml precursor, starting cell concentration 1.75 × 10^5
Procedure: (§3) Table V below lists each microalgae in the final panel, its starting cell concentration, the concentration of precursor compound in the growth medium, the starting and final cell count, and the method of separation of the resulting biomass from the culture supernatant. The final panel of algal strains were grown for 7 days under the conditions listed in Table III above in the presence of the precursor compound prior to separation of the resulting biomass from the culture supernatant.

Moromastix sp. = test: as above; format: cell-based; conditions: 200 μg/ml precursor, starting cell concentration 6.16 × 10^5
Procedure: as §3

Cryptocrysis rubens = test: as above; format: cell-based; conditions: 200 μg/ml precursor, starting cell concentration not determined
Procedure: as §3

Platymonas = test: growth (cell counts) of microalgae in the presence of precursor compound; format: cell-based, Platymonas sp.; conditions: 100 μg/ml, cell counts on days 0, 2, 4 and 7, relative to growth controls
Procedure: as §1

Phaeodactylum = test: as above; format: cell-based, Phaeodactylum tricornutum; conditions: 100 μg/ml, cell counts on days 0, 2, 4 and 7, relative to growth controls
Procedure: as §1
as §1, with “VIII” for “III”, “Precursor 2.” for “the precursor compound.”, “tert-butyl[S-(R*-R*)]-(−)-(1-oxiranyl-2-phenylethylcarbamate)” for “(S)-(−)-3-(Benzyloxycarbonyl)-4-oxazolidinecarboxylic acid”, “concentration in the culture medium” for “concentration”

Botrydium = test: as above; format: cell-based; conditions: 100 μg/ml, cell counts on days 0, 2, 4 and 7, relative to growth controls
Procedure: as §1

Chlamydomonas = test: as above; format: cell-based, Chlamydomonas reinhardtii; conditions: 100 μg/ml, cell counts on days 0, 2, 4 and 7, relative to growth controls
Procedure: as §1

With `O=C(O)[C@@H]1COCN1C(=O)OCc1ccccc1` [precursor compound, (S)-(−)-3-(Benzyloxycarbonyl)-4-oxazolidinecarboxylic acid] the “effect on growth of Chlorella” value (Chlorella) was “increased growth relative to the growth controls”, the “effect on growth of Chlorella” value (Chlorella; listed as Precursor 2 used in Example 1) was “negatively affected” and the “Final Cell Concentration” value (Olithodiscus sp.) was 1.3 × 10^6. For the same molecule, the “Final Cell Concentration” value (Cryptomonas ovata) was 1.3 × 10^5, the “Final Cell Concentration” value (Scenedesmus obliquus) was 2.12 × 10^7 and the “Final Cell Concentration” value [1] was 4.08 × 10^6. The “Final Cell Concentration” value (Chlorella minutisima) was 1.08 × 10^7, the “Final Cell Concentration” value [2] was 1.58 × 10^9 and the “Final Cell Concentration” value (Euglena gracilis) was 6.6 × 10^5. The “Final Cell Concentration” value (Chloromonas rosae) was 1.13 × 10^6, the “Final Cell Concentration” value (Moromastix sp.) was 7.4 × 10^5 and the “Final Cell Concentration” value (Cryptocrysis rubens) was 3.09 × 10^6. For the same molecule, the “effect on growth of Platymonas” value (Platymonas) was “causing cell death”, the “effect on growth of Phaeodactylum” value (Phaeodactylum) was “moderate, but not severe decreases in growth relative to the growth controls” and the “effect on growth of Botrydium” value (Botrydium) was “increased growth relative to the growth controls”. The “effect on growth of Chlamydomonas” value (Chlamydomonas) was “moderate, but not severe decreases in growth relative to the growth controls”.
